These are literature values, as cited in patent publication US20140371418A1, “BIOLOGICAL SYNTHESIS OF P-AMINOBENZOIC ACID, P-AMINOPHENOL, N-(4-HYDROXYPHENYL)ETHANAMIDE AND DERIVATIVES THEREOF” (pAromatics, LLC, priority 2012, published 2014).

As to `Nc1ccc(C(=O)O)cc1` [PABA, p-aminobenzoic acid], the “solubility of PABA in water” value was 0.072 M and about 10 g/L. Further, the “inhibition of growth of bacteria and fungi” value in the series with bacteria and fungi is on record as “inhibits growth”.
